According to PMC9557946, “Intermittent MEK inhibition for the treatment of metastatic uveal melanoma” (Frontiers in Oncology, 2022):

Experiments:
[1] = Pharmacokinetic analysis in serum (LC-MS/MS, non-compartmental)
Procedure: Non-compartmental analyses were performed on the data for day 1, 2, 15 and 17 using Winnonlin software (Phoenix Winnonlin 8.3.1.5014, Certara L.P., Princeton, NJ). […] Data were summarized per dose level and per occasion. Dose-exposure relationships were explored by plotting dose versus the various parameters. Accumulation was investigated using the AUC assessed at various days.

[2] = system: SKMEL28 melanoma cell lines; parameters: method as in PMID 31874374; conditions: intermittently administered; ref [19]; cited from earlier work

Compound	accumulation ([1]; during three days of dosing and repeated three-day courses)	average terminal half-life ([1]; from 8h serum concentration curves, likely an underestimation) [h]	time to maximum serum concentration after oral intake ([1]; overall)	effect of treatment interruptions on tumor growth [2]
O=C(NOCCO)c1cc2nc[nH]c2c(F)c1Nc1ccc(Br)cc1Cl [N-desmethyl-selumetinib]	little to no accumulation	4.3	approximately 1.7 hours	–
O=C(c1ccc(F)c(F)c1Nc1ccc(I)cc1F)N1CC(O)([C@@H]2CCCCN2)C1 [cobimetinib]	–	–	–	Treatment interruptions resulted in tumor regrowth that could not be compensated when drug administration was resumed
